The assay relates to itch patients treated with hemodialysis. Description: Oral administration of compound 1 soft capsules to itch patients treated with hemodialysis; skin properties and itching observed.
Where [1] appears, read: one of the patients, after end of administration.

As to `CN(C(=O)/C=C/c1ccoc1)[C@@H]1CC[C@@]2(O)[C@H]3Cc4ccc(O)c5c4[C@@]2(CCN3CC2CC2)[C@H]1O5.Cl` [compound 1], under setting [1], the itching entry is on record as “began to feel itching again” and the skin moisture entry was “began to have dry skin”. The itching entry (patient, two capsules (5.0 μg) oral, after start of administration) is recorded as “began to feel less itching”.

Values taken from patent publication US20100222309A1, “SKIN PROPERTY-IMPROVING THERAPEUTIC AGENT COMPRISING A MORPHINAN DERIVATIVE OR ANY OF ITS PHARMACOLOGICALLY PERMISSIBLE ACID ADDITION SALTS AS AN ACTIVE INGREDIENT” (TORAY INDUSTRIES, INC., priority 2007, published 2010).
